Results reported in patent US8685941B2, “Drug composition cytotoxic for pancreatic cancer cells” (University of Central Florida Research Foundation, Inc., priority 2008, dated 2014).
Like-named read-outs stand apart in the source and are kept apart here.

How the values were obtained:
[1] = tested on: Stat3; experiment: Stat3 DNA-binding activity, EMSA of nuclear extracts, Panc-1; format: cell-based, human; details: for constitutive Stat3 DNA-binding activity: Panc-1, 24 h treatment; for constitutively-active Stat3 DNA-binding activity: first 30 min to 1 h of treatment
Procedure: (§1) Nuclear Extract Preparation and Gel Shift Assays.
(§2) Nuclear extract preparation and DNA-binding with electrophoretic mobility shift assay (EMSA) were carried out, as previously reported (14, 15). The ^32P-labeled oligonucleotide probes used were hSIE (high affinity sis-inducible element from the c-fos gene, m67 variant), 5′-[…]; (SEQ ID NO:1) that binds Stat1 and Stat3 (Wagner et al., 1990) and the MGFe (mammary gland factor element from the bovine β-casein gene promoter, 5′-[…]; (SEQ ID NO:2) that binds Stat1 and Stat5 (Gouilleux et al., 1995; Seidel et al., 1995).

[2] = target: T1, Src (Homo sapiens, UniProt P12931); experiment: Immunoblotting of whole-cell lysates for pY416Src; format: cell-based; details: immunoblot, 1 h and 24 h treatment or siRNA knockdown
T1 construct: endogenous in cells; host or cells: Panc-1 and Colo-357 human pancreatic cancer cells
Procedure: (§3) SDS-PAGE/Western Blot Analysis.
(§4) Western blotting analysis was performed as previously described (15, 18). Primary antibodies used were anti-Stat3 (C20) (Santa Cruz, Santa Cruz, Calif.), anti-pY845EGFR (Upstate Biotech, Millipore, Billerica, Mass.), and antibodies against pY705Stat3, Stat3, pY1068EGFR, pY1086EGFR, pY1173EGFR, EGFR, pY416Src, Src, c-Myc, and β-Actin from Cell Signaling (Danvers, Mass.). Inhibitors
Small-Interfering RNA (siRNA) Transfection.
siRNA sequences for EGFR and Src were ordered from Dharmacon RNAi Technologies, Thermo Scientific (Lafayette, Colo.).

[3] = tested on: Panc-1 and Colo-357 cells; experiment: CyQuant cell proliferation/viability assay, statements for both lines
Excerpt: (§5) Cell Proliferation Viability Assay and Annexin V Binding and Flow Cytometry.
(§6) Viable cells were counted by trypan blue exclusion/phase contrast microscopy or assessed by CyQuant cell viability assay, according to manufacturer's (Invitrogen) instructions, or cells were processed for Annexin V binding (BD Biosciences) with flow cytometry for apoptosis.

[4] = tested on: Panc-1 and Colo-357 cells; experiment: Colony survival assay; format: cell-based, human; details: 500 cells per dish, treated once for 48 h
Procedure: Single-cell suspension of Panc-1 and Colo-357 cells were seeded in 6-cm dishes (500 cells per well) and assayed as previously reported (19), treated the next day with inhibitors for 48 h, and allowed to grow until large colonies were visible. Colonies were stained with crystal violet for 4 h and counted under phase-contrast microscope.

[5] = tested on: Stat3; experiment: Stat3 DNA-binding activity, EMSA of nuclear extracts, Colo-357; format: cell-based, human
Procedure: as §1, §2

[6] = tested on: pErk1/pErk2MAPK and pAkt; experiment: Immunoblotting for pErk1/pErk2MAPK and pAkt (control studies); format: cell-based, human; details: Panc-1 and Colo-357 cells (data not shown)
Procedure: as §3, §4

[7] = tested on: Panc-1 or Colo-357 cells; experiment: Viable cell count by trypan blue exclusion/phase-contrast microscopy; format: cell-based, human
Excerpt: as §5, §6

[8] = tested on: Colo-357 cells; experiment: CyQuant cell proliferation/viability assay, Colo-357; format: cell-based; details: Homo sapiens
Excerpt: as §5, §6

[9] = tested on: Panc-1 cells; experiment: CyQuant cell proliferation/viability assay, Panc-1; format: cell-based; details: Homo sapiens
Excerpt: as §5, §6

[10] = 48-h treatment with each inhibitor alone
[11] = 1 μM ZD, 100 nM Das, or 50 μM S3I-201 alone, 24 h
[12] = COLO357, inhibitor alone, 48-h treatment, read-out: IC50 against Colo-357 viability
[13] = PANC-1, inhibitor alone, 48-h treatment, read-out: IC50 against Panc-1 viability

T1 sequence (P12931 whole entry): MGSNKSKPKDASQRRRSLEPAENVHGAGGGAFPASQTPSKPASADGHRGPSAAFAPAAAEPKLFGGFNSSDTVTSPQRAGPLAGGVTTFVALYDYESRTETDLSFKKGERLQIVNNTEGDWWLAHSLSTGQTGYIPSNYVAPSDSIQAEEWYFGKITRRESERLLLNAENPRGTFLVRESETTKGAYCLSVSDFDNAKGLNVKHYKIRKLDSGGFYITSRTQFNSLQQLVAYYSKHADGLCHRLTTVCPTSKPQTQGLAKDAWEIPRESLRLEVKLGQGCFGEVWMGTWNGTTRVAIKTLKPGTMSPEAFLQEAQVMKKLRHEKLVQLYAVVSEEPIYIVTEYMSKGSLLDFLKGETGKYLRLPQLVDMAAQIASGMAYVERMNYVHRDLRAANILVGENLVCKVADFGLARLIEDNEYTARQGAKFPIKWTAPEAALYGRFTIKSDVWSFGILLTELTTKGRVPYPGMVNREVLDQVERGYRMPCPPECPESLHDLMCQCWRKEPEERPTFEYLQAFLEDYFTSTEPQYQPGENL

SMILES | constitutive Stat3 DNA-binding activity [1] | constitutively-active Stat3 DNA-binding activity [1] | viable cell numbers (fluorescent unit, FU) [3, 10] | colony numbers [4] | Stat3 DNA-binding activity [5] | pErk1/pErk2MAPK and pAkt levels [6] | cell viability (viable cell count) [7, 11] | cell viability (viable cell count) ([7]; treatment for 48 to 96 h) | IC50 [8, 12] | IC50 [9, 13] | further results
C=CC(=O)Nc1cc2c(Nc3cccc(Br)c3)ncnc2cc1OCCCN1CCOCC1 [PD169] | rebounded | early repression | – | – | – | – | – | – | – | – | pY416Src level (Src activity) [2]: no detectable changes
N#C/C(=C\c1ccc(O)c(O)c1)C(=O)NCc1ccccc1 [AG490, Tyrphostin AG490] | abolished | no effect | – | – | – | – | – | – | – | – | –
Cc1nc(Nc2ncc(C(=O)Nc3c(C)cccc3Cl)s2)cc(N2CCN(CCO)CC2)n1 [Das, Dasatinib] | rebounded | early repression | decreased viable cell numbers | reduced colony numbers | inhibited | neither of which was significantly affected | minimally affected | progressively decreased | 0.09 µM | 0.1 µM | sensitivity of both cell lines to S3I-201 ([3]; co-treatment with Das or ZD, 48 h): increased the sensitivity; IC50 ([8]; COLO357, read-out: IC50 of Das against Colo-357 viability, concurrent treatment with S3I-201, 48-h treatment): 0.008 µM; IC50 ([9]; PANC-1, read-out: IC50 of Das against Panc-1 viability, concurrent treatment with S3I-201, 48-h treatment): 0.006 µM
COc1cc2ncnc(Nc3ccc(F)c(Cl)c3)c2cc1OCCCN1CCOCC1 [ZD, Gefitinib] | rebounded | early repression | decreased viable cell numbers | not EGFR inhibition (by ZD) resulted in reduced colony numbers | inhibited | neither of which was significantly affected | minimally affected | minimal effect | – | – | cell viability ([3]; 1 μM ZD for 48 h): minimal effect; number of viable Panc-1 cells ([7]; ZD, 96 h (Day 4), Panc-1): decreased
CC(C)(C)c1cc(/C=C(\C#N)C(N)=S)cc(C(C)(C)C)c1O [AG879] | moderately inhibited | early repression | – | – | – | – | – | – | – | – | –
Cc1ccc(S(=O)(=O)OCC(=O)Nc2ccc(C(=O)O)c(O)c2)cc1 [S3I-201] | – | – | – | reduced colony numbers | – | – | minimally affected | progressively decreased | 45 µM | 40 µM | viable cell numbers (fluorescent unit, FU) [3]: decreased viable cell numbers; sensitivity of Panc-1 and Colo-357 cells to ZD and Das ([3]; co-treatment with S3I-201, 48 h): increased the sensitivity; IC50 ([8]; COLO357, 48 h, read-out: IC50 of S3I-201 on Colo-357 cells): 20 µM; IC50 ([9]; PANC-1, 48 h, read-out: IC50 of S3I-201 on Panc-1 cells): 15 µM
